Test results as given in patent US7138361B2, “Herbicidal heterocycles” (E. I. du Pont de Nemours and Company, priority 2000, dated 2006).

Key:
Format in all cases: in vivo
[1] = tested on: rice (Oryza saliva); assay: Test C flooded paddy test; details: for Rice plant response rating: Flooded Paddy, scale 0 to 100, 0 no effect, 100 complete control; for Plant response rating, Rice: scale 0 to 100 (0 no effect, 100 complete control)
How it was run: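 Visual ratings (0 = no effect, 100 = complete control) were made 12–14 days after treatment, relative to greenhouse controls. Plants in the flooded paddy test were rice, smallflower flatsedge, duck salad and barnyardgrass, treated at the 2-leaf stage.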

[2] = tested on: Sunflower; assay: Test C preemergence; details: Rate 500 g/ha, visual evaluation after 12 to 14 days
[3] = tested on: Sunflower; assay: Test C preemergence; details: scale 0 to 100
[4] = tested on: Surinam grass (Brachiaria decumbens); assay: Test C postemergence
Excerpt: (§1) Seeds of plant species selected from bermudagrass (Cynodon dactylon), Surinam grass (Brachiaria decumbens), cocklebur (Xanthium strumarium), corn (Zea mays), crabgrass (Digitaria sanguinalis), woolly cupgrass (Eriochloa villosa), giant foxtail (Setaria faberii), goosegrass (Eleusine indica), johnsongrass (Sorghum halepense), kochia (Kochia scoparia), lambsquarters (Chenopodium album), morningglory (Ipomoea hederacea), yellow nutsedge (Cyperus esculentus), pigweed (Amaranthus retroflexus), common ragweed (Ambrosia elatior), soybean (Glycine max) and velvetleaf (Abutilon theophrasti) were planted and treated preemergence with test chemicals formulated in a non-phytotoxic solvent mixture which included a surfactant.
(§2) At the same time, plants selected from these crop and weed species and also winter barley (Hordeum vulgare), blackgrass (Alopecurus myosuroides), canary grass (Phalaris minor), chickweed (Stellaria media), downy brome (Bromus tectorum), green foxtail (Setaria viridis), Italian ryegrass (Lolium multiflorum), wheat (Triticum aestivum), wild oat (Avena fatua) and windgrass (Apera spica-venti) were treated with postemergence applications of some of the test chemicals formulated in the same manner. Plants ranged in height from 2 to 18 cm (1- to 4-leaf stage) for postemergence treatments. Plant species in the flooded paddy test consisted of rice (Oryza saliva), smallflower flatsedge (Cyperus difformis), duck salad (Heteranthera limosa) and barnyardgrass (Echinochloa crus-galli) grown to the 2-leaf stage for testing. Treated plants and controls were maintained in a greenhouse for 12 to 14 days, after which time all species were compared to controls and visually evaluated. Plant response ratings, summarized in Table C, are based on a scale of 0 to 100 where 0 is no effect and 100 is complete control. A dash (-) response means no test result.

[5] = tested on: bermudagrass (Cynodon dactylon); assay: Test C postemergence
Excerpt: as §1, §2

[6] = tested on: corn (Zea mays); assay: Test C postemergence; details: scale 0 to 100
Excerpt: as §1, §2

[7] = tested on: giant foxtail (Setaria faberii); assay: Test C postemergence
Excerpt: as §1, §2

[8] = tested on: goosegrass (Eleusine indica); assay: Test C postemergence
Excerpt: as §1, §2

[9] = tested on: lambsquarters (Chenopodium album); assay: Test C postemergence
Excerpt: as §1, §2

[10] = tested on: morningglory (Ipomoea hederacea); assay: Test C postemergence; details: scale 0 to 100
Excerpt: as §1, §2

[11] = tested on: velvetleaf (Abutilon theophrasti); assay: Test C postemergence; details: scale 0 to 100
Excerpt: as §1, §2

[12] = tested on: yellow nutsedge (Cyperus esculentus); assay: Test C postemergence
Excerpt: as §1, §2

[13] = flooded paddy test, Rate 125 g/ha
[14] = flooded paddy test, Rate 62 g/ha
[15] = Rate 125 g/ha, scale 0 to 100, 0 no effect, 100 complete control
[16] = Rate 250 g/ha, scale 0 to 100 (0 no effect, 100 complete control)

## CCCC(C)c1ccn(C2CCN(c3cccc(OCC)c3)C2=O)n1 (stereo not shown) [Compound 129]
[1]; Rate 250 g/ha
  Rice plant response rating: 0
[1]; Rate 500 g/ha
  Rice plant response rating: 35
[1]; [13]
  Plant response rating, Rice: 0
[1]; flooded paddy test, Rate 62 g/ha, visually evaluated after 12 to 14 days, 0 = no effect, 100 = complete control
  Plant response rating (scale 0 to 100), Rice: 0
[2]
  Plant response rating (0 to 100), Sunflower: 10
[3]; Rate 62 g/ha
  Plant response rating, Sunflower: 0

## CCC(C)c1ccn(C2CCN(c3cccc(OC)c3)C2=O)n1 (stereo not shown) [Compound 95]
[1]; Rate 250 g/ha
  Rice plant response rating: 70
[1]; Rate 500 g/ha
  Rice plant response rating: 90
[1]; [14]
  Plant response rating, Rice: 0
[1]; [13]
  Plant response rating, Rice: 20
[2]
  Plant response rating (0 to 100), Sunflower: 10
[3]; Rate 62 g/ha
  Plant response rating, Sunflower: 0

## CCCC(C)c1ccn(C2OCN(c3cccc(C(F)(F)F)c3)C2=O)n1 (stereo not shown) [Compound 89]
[1]; Rate 250 g/ha
  Rice plant response rating: 20
[1]; Rate 500 g/ha
  Rice plant response rating: 40
[1]; [14]
  Plant response rating, Rice: 0
[1]; [13]
  Plant response rating, Rice: 0
[2]
  Plant response rating (0 to 100), Sunflower: 60
[3]; Rate 62 g/ha
  Plant response rating, Sunflower: 0

## CC(C)c1cccc(N2CCC(n3ccc(C(C)(C)C)n3)C2=O)c1 (stereo not shown) [Compound 111]
[1]; Rate 250 g/ha
  Rice plant response rating: 0
[1]; Rate 500 g/ha
  Rice plant response rating: 0
[1]; [14]
  Plant response rating, Rice: 0
[1]; [13]
  Plant response rating, Rice: 0
[2]
  Plant response rating (0 to 100), Sunflower: 0
[3]; Rate 62 g/ha
  Plant response rating, Sunflower: 0

## CCCC(C)c1ccn(C2CCN(c3cccc(C(F)(F)F)c3)C2=O)n1 (stereo not shown) [Compound 100]
[1]; Rate 250 g/ha
  Rice plant response rating: 50
[1]; Rate 500 g/ha
  Rice plant response rating: 80
[1]; [14]
  Plant response rating, Rice: 0
[1]; [13]
  Plant response rating, Rice: 50
[2]
  Plant response rating (0 to 100), Sunflower: 0
[3]; Rate 62 g/ha
  Plant response rating, Sunflower: 0

## CCC(C)Oc1cccc(N2CCC(n3ccc(C(C)(C)C)n3)C2=O)c1 (stereo not shown) [Compound 127]
[1]; Rate 250 g/ha
  Rice plant response rating: 0
[1]; Rate 500 g/ha
  Rice plant response rating: 0
[1]; [14]
  Plant response rating, Rice: 0
[1]; [13]
  Plant response rating, Rice: 0
[2]
  Plant response rating (0 to 100), Sunflower: 0
[3]; Rate 62 g/ha
  Plant response rating, Sunflower: 0

## CCC(CC)c1ccn(C2CCN(c3cccc(OC)c3)C2=O)n1 (stereo not shown) [Compound 96]
[1]; Rate 250 g/ha
  Rice plant response rating: 50
[1]; Rate 500 g/ha
  Rice plant response rating: 60
[1]; [14]
  Plant response rating, Rice: 0
[1]; [13]
  Plant response rating, Rice: 0
[2]
  Plant response rating (0 to 100), Sunflower: 50
[3]; Rate 62 g/ha
  Plant response rating, Sunflower: 0

## Cc1ccc(N2CCC(n3ccc(C(C)(C)C)n3)C2=O)cc1OCCCl (stereo not shown) [Compound 109]
[4]; Rate 31 g/ha, scale 0 to 100
  Plant response rating, Surinam grass: 0
[4]; Rate 62 g/ha, scale 0 to 100
  Plant response rating, Surinam grass: 0
[4]; [15]
  Plant response rating, Surinam grass: 0
[4]; [16]
  Plant response rating, Surinam grass: 0
[5]; Rate 31 g/ha, scale 0 to 100
  Plant response rating, Bermudagrass: 0
[5]; Rate 62 g/ha, scale 0 to 100
  Plant response rating, Bermudagrass: 0
[5]; [15]
  Plant response rating, Bermudagrass: 10
[5]; [16]
  Plant response rating, Bermudagrass: 20
[6]; Rate 31 g/ha
  Plant response rating, Corn: 0
[6]; Rate 62 g/ha
  Plant response rating, Corn: 0
[6]
  Plant response rating, Corn: 40
[7]; Rate 31 g/ha, scale 0 to 100
  Plant response rating, Foxtail, Giant: 0
[7]; Rate 62 g/ha, scale 0 to 100
  Plant response rating, Foxtail, Giant: 0
[7]; [16]
  Plant response rating, Foxtail, Giant: 0
[8]; Rate 31 g/ha, scale 0 to 100
  Plant response rating, Goosegrass: 0
[8]; Rate 62 g/ha, scale 0 to 100
  Plant response rating, Goosegrass: 0
[8]; [16]
  Plant response rating, Goosegrass: 10
[9]; Rate 31 g/ha, scale 0 to 100
  Plant response rating, Lambsquarters: 70
[9]; Rate 62 g/ha, scale 0 to 100
  Plant response rating, Lambsquarters: 70
[9]; [16]
  Plant response rating, Lambsquarters: 100
[10]; Rate 31 g/ha
  Plant response rating, Morningglory: 60
[10]; Rate 62 g/ha
  Plant response rating, Morningglory: 100
[11]; Rate 31 g/ha
  Plant response rating, Velvetleaf: 20
[11]; Rate 62 g/ha
  Plant response rating, Velvetleaf: 40
[11]
  Plant response rating, Velvetleaf: 70
[12]; Rate 31 g/ha, scale 0 to 100
  Plant response rating, Nutsedge: 0
[12]; Rate 62 g/ha, scale 0 to 100
  Plant response rating, Nutsedge: 0
[12]; [16]
  Plant response rating, Nutsedge: 0
[1]; Rate 250 g/ha
  Rice plant response rating: 0
[1]; Rate 500 g/ha
  Rice plant response rating: 20
[1]; [14]
  Plant response rating, Rice: 0
[1]; [13]
  Plant response rating, Rice: 0
[3]; Rate 31 g/ha
  Plant response rating, Sunflower: 40
[3]; Rate 62 g/ha
  Plant response rating, Sunflower: 70
